The text below walks through data of US20250145585A1, “HETEROCYCLIC INHIBITORS OF IGF-1R FOR TREATMENT OF DISEASE” (HORIZON THERAPEUTICS IRELAND DAC, priority 2023, published 2025).

This test has as its target T1, IGF-1R (Homo sapiens, UniProt P08069).
T1 construct: expressed in transfected cells
Put plainly: Example B-2: IGF-1R Assay (PathHunter cell lines, EC80 agonist challenge, chemiluminescent detection). Particulars: PathHunter cells, compound 60 minutes at 37° C., EC80 agonist 3 hours; read-out: IC50, Biological Activity against IGF-1R (Table B2). It counts as cell-based. The protocol: PathHunter cell lines were expanded from freezer stocks according to standard procedures. Cells were seeded in a total volume of 20 μL into white walled, 384-well microplates and incubated for the appropriate time prior to testing.
Cells are pre-incubated with compound followed by EC80 agonist challenge as follows: • R. 1. Intermediate dilution of sample stocks was performed to generate 5× sample in assay buffer. • 2. 5 μL of 5× sample was added to cells and incubated at 37° C. for 60 minutes. Vehicle concentration was 1%. • 3. 5 IL of 6× EC80 agonist in assay buffer was added to the cells and incubated at room temperature for 3 hours.
Assay signal was generated through a single addition of 12.5 or 15 μL (50% v/v) of PathHunter Detection reagent cocktail for agonist and antagonist assays respectively, followed by a one hour incubation at room temperature. Microplates were read following signal generation with a PerkinElmer Envision™ instrument for chemilumine-scent signal detection.
Compound activity was analyzed using CBIS data analysis suite (ChemInnovation, CA). Percentage inhibition was calculated using the following formula: % Inhibition=100%×(1−(mean RLU of test sample−mean RLU of vehicle control)/(mean RLU of EC80 control−mean RLU of vehicle control)). The activity for representative examples of the invention is shown in the following table, wherein A: IC50≤500 nM; B: 500 nM<IC50≤2 μM; C: 2 μM<IC50≤10 μM; D: IC50>10 μM.

Each structure is given as a SMILES string.

T1 sequence (P08069 31-1367): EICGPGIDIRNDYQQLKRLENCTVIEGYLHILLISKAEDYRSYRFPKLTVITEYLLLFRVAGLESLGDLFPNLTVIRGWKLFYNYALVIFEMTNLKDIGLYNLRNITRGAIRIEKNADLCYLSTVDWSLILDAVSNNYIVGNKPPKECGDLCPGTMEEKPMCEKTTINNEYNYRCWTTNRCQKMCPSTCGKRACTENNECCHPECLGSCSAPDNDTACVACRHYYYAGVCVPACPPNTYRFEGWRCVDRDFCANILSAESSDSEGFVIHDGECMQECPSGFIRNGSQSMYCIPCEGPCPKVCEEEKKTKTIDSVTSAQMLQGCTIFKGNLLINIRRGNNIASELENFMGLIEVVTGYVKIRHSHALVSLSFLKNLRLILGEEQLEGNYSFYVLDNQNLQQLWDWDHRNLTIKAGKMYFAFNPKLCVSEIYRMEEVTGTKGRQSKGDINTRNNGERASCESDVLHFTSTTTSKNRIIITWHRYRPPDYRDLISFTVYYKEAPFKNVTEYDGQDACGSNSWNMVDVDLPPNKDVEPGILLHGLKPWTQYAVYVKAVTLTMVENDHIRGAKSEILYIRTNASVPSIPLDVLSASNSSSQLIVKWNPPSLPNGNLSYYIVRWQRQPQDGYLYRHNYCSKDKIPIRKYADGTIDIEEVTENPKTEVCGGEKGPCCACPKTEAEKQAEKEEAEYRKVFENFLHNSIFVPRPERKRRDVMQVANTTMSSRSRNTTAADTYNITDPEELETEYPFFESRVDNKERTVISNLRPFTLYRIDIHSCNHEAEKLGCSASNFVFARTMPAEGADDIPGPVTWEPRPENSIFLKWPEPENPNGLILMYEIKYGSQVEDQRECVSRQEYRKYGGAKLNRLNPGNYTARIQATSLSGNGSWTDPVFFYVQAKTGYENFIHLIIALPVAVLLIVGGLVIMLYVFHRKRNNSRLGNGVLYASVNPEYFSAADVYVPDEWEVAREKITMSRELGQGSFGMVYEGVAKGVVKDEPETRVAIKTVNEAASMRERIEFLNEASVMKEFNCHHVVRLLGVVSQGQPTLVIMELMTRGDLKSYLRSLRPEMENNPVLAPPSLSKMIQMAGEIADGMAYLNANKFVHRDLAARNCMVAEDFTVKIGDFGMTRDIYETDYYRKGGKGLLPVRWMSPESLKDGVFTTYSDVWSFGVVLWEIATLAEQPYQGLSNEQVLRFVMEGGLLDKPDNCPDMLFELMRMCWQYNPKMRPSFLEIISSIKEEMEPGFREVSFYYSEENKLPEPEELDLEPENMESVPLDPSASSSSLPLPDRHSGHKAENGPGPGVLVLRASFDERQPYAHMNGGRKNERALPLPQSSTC

Usually IC50 stands for the concentration that inhibits the measured activity by half. With `CC1(C)CN(S(C)(=O)=O)c2cc(N3C(=O)N(Cc4ccnc(N[C@H]5CCOC5)c4)C(C)(C)C3=O)ccc21` [Compound 201, (S)-3-(3,3-dimethyl-1-(methylsulfonyl)indolin-6-yl)-5,5-dimethyl-1-((2-((tetrahydrofuran-3-yl)amino)pyridin-4-yl)methyl)imidazolidine-2,4-dione], the IC50 was at most 500 nM.
Next, `CC1(C)C(=O)N(c2ccc(C3(C(F)(F)F)CC3)cc2)C(=O)N1Cc1ccnc(NCc2cc[nH]n2)c1` [Compound 184, 1-((2-(((1H-pyrazol-3-yl)methyl)amino)pyridin-4-yl)methyl)-5,5-dimethyl-3-(4-(1-(trifluoromethyl)cyclopropyl)phenyl) imidazolidine-2,4-dione]: at most 500 nM.
Next, `CC1(C)C(=O)N(c2ccc(C3(C(F)(F)F)CC3)cc2)C(=O)N1Cc1ccnc(NC2CCN(S(C)(=O)=O)C2)c1` (stereo not drawn) [Compound 146, 5,5-dimethyl-1-((2-((1-(methylsulfonyl)pyrrolidin-3-yl)amino)pyridin-4-yl)methyl)-3-(4-(1-(trifluoromethyl)cyclopropyl)phenyl) imidazolidine-2,4-dione]: 500 to 2000 nM.
The value for `CC1(C)C(=O)N(c2ccc(OC(F)(F)F)c(NC(=O)CN3CCOCC3)c2)C(=O)N1Cc1ccnc2c1CC(=O)N2` [Compound 75, N-(5-(4,4-dimethyl-2,5-dioxo-3-((2-oxo-2,3-dihydro-1H-pyrrolo[2,3-b]pyridin-4-yl)methyl)imidazolidin-1-yl)-2-(trifluoromethoxy)phenyl)-2-morpholinoacetamide] was at most 500 nM; that for `CC(Nc1cc(CN2C(=O)N(c3ccc(C4(C(F)(F)F)CC4)cc3)C(=O)C2(C)C)ccn1)c1cccnc1` (stereo not drawn) [Compound 165, 5,5-dimethyl-1-((2-((1-(pyridin-3-yl)ethyl)amino)pyridin-4-yl)methyl)-3-(4-(1-(trifluoromethyl)cyclopropyl)phenyl)imidazolidine-2,4-dione] was at most 500 nM.
`COCC1(Nc2cc(CN3C(=O)N(c4ccc(C5(C(F)(F)F)CC5)cc4)C(=O)C3(C)C)ccn2)CC1` [Compound 159, 1-((2-((1-(methoxymethyl)cyclopropyl)amino)pyridin-4-yl)methyl)-5,5-dimethyl-3-(4-(1-(trifluoromethyl)cyclopropyl)phenyl) imidazolidine-2,4-dione]: the IC50 was at most 500 nM.
As for `Cn1ccnc1CNc1cc(CN2C(=O)N(c3ccc(C4(C(F)(F)F)CC4)cc3)C(=O)C2(C)C)ccn1` [Compound 183, 5,5-dimethyl-1-((2-(((1-methyl-1H-imidazol-2-yl)methyl)amino)pyridin-4-yl)methyl)-3-(4-(1-(trifluoromethyl)cyclopropyl)phenyl) imidazolidine-2,4-dione], the IC50 is at most 500 nM.
Next, `CC(C)Nc1cc(CN2C(=O)N(c3ccc4c(c3)C(O)(O)C(F)(F)S4(=O)=O)C(=O)C2(C)C)ccn1` [Compound 192, 3-(2,2-difluoro-3,3-dihydroxy-1,1-dioxido-2,3-dihydrobenzo[b]thiophen-5-yl)-1-((2-(isopropylamino)pyridin-4-yl)methyl)-5,5-dimethylimidazolidine-2,4-dione]: over 10000 nM.
Next, `C[C@H](CC#N)Nc1cc(CN2C(=O)N(c3ccc(S(=O)(=O)C(F)(F)F)cc3)C(=O)C2(C)C)ccn1` [Compound 331, (R)-3-((4-((5,5-dimethyl-2,4-dioxo-3-(4-((trifluoromethyl)sulfonyl)phenyl)imidazolidin-1-yl)methyl)pyridin-2-yl)amino)butanenitrile]: 500 to 2000 nM; `CC1(C)C(=O)N(c2ccc(C(C)(C)C(F)(F)F)cc2)C(=O)N1Cc1ccnc2c1CC(=O)N2` [Compound 57, 5,5-dimethyl-1-((2-oxo-2,3-dihydro-1H-pyrrolo[2,3-b]pyridin-4-yl)methyl)-3-(4-(1,1,1-trifluoro-2-methylpropan-2-yl)phenyl)imidazolidine-2,4-dione]: at most 500 nM.
The value for `CC1(C)C(=O)N(c2ccc(C(F)(F)F)c(C#N)c2)C(=O)N1Cc1ccnc2c1CC(=O)N2` [Compound 66, 5-(4,4-dimethyl-2,5-dioxo-3-((2-oxo-2,3-dihydro-1H-pyrrolo[2,3-b]pyridin-4-yl)methyl)imidazolidin-1-yl)-2-(trifluoromethyl)benzonitrile] was over 10000 nM.
For the compound `CC1(C)CN(S(=O)(=O)C2CC2)c2cc(N3C(=O)N(Cc4ccnc(NC5CCOCC5)c4)C(C)(C)C3=O)ccc21` [Compound 248, 3-(1-(cyclopropylsulfonyl)-3,3-dimethylindolin-6-yl)-5,5-dimethyl-1-((2-((tetrahydro-2H-pyran-4-yl)amino)pyridin-4-yl)methyl)imidazolidine-2,4-dione], the IC50 was at most 500 nM.
Turning to `CC1(C)C(=O)N(c2ccc3c(c2)CCS3(=O)=O)C(=O)N1Cc1ccnc(N[C@H]2[C@@H]3COC[C@@H]32)c1` [Compound 250, 1-((2-(((1R,5S,6r)-3-oxabicyclo[3.1.0]hexan-6-yl)amino)pyridin-4-yl)methyl)-3-(1,1-dioxido-2,3-dihydrobenzo[b]thiophen-5-yl)-5,5-dimethylimidazolidine-2,4-dione], the IC50 was over 10000 nM.
The value for `CC1(C)C(=O)N(c2ccc3c(c2)N(C(=O)C2CC2)CC32CC2)C(=O)N1Cc1ccnc(N[C@H]2[C@@H]3COC[C@@H]32)c1` [Compound 231, 1-((2-((1R,5S,6r)-3-oxabicyclo[3.1.0]hexan-6-ylamino)pyridin-4-yl)methyl)-3-(1′-(cyclopropanecarbonyl)spiro[cyclopropane-1,3′-indolin]-6′-yl)-5,5-dimethylimidazolidine-2,4-dione] was at most 500 nM; that for `CC1(C)C(=O)N(c2ccc(OC(F)(F)F)c(Cl)c2)C(=O)N1Cc1ccnc2c1CC(=O)N2` [Compound 287, 3-(3-chloro-4-(trifluoromethoxy)phenyl)-5,5-dimethyl-1-((2-oxo-2,3-dihydro-1H-pyrrolo[2,3-b]pyridin-4-yl)methyl)imidazolidine-2,4-dione] was 2000 to 10000 nM.
The value for `CC(C)Nc1cc(CN2C(=O)N(c3ccc4c(c3)N(S(C)(=O)=O)CC43CCC3)C(=O)C2(C)C)ccn1` [Compound 195, 1-((2-(isopropylamino)pyridin-4-yl)methyl)-5,5-dimethyl-3-(1′-(methylsulfonyl)spiro[cyclobutane-1,3′-indolin]-6′-yl)imidazolidine-2,4-dione] was at most 500 nM; that for `C[C@@H](Nc1cc(CN2C(=O)N(c3ccc(S(=O)(=O)C(F)(F)F)cc3)C(=O)C2(C)C)ccn1)[C@H]1CCCO1` [Compound 342, 5,5-dimethyl-1-((2-(((R)-1-((R)-tetrahydrofuran-2-yl)ethyl)amino)pyridin-4-yl)methyl)-3-(4-((trifluoromethyl)sulfonyl)phenyl) imidazolidine-2,4-dione] was 2000 to 10000 nM; that for `C[C@@H]1CNc2nccc(CN3C(=O)N(c4ccc(C5(C(F)(F)F)CC5)cc4)C(=O)C3(C)C)c2O1` [Compound 27, (R)-5,5-dimethyl-1-((2-methyl-3,4-dihydro-2H-pyrido[3,2-b][1,4]oxazin-8-yl)methyl)-3-(4-(1-(trifluoromethyl)cyclopropyl)phenyl) imidazolidine-2,4-dione] was at most 500 nM.
